Test results: PubChem BioAssay (NCI)
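Protocol summary: plate cells (96-well), add compound at 5 concentrations, incubate 48 h, interpolate endpoints linearly. TGI is the concentration that stops growth completely.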

How the values were obtained:
Test in all cases: NCI anticancer screen, dose series, 48 h
PC-3 prostate = test system: PC-3 prostate
HL-60(TB) leukemia = test system: HL-60(TB) leukemia
SK-OV-3 ovarian = test system: SK-OV-3 ovarian
786-0 renal = test system: 786-0 renal
OVCAR-3 ovarian = test system: OVCAR-3 ovarian
SK-MEL-2 melanoma = test system: SK-MEL-2 melanoma
T-47D breast = test system: T-47D breast
K-562 leukemia = test system: K-562 leukemia
SF-295 CNS = test system: SF-295 CNS
MDA-N = test system: MDA-N
SF-268 CNS = test system: SF-268 CNS
CAKI-1 renal = test system: CAKI-1 renal
U251 CNS = test system: U251 CNS
MDA-MB-435 = test system: MDA-MB-435
SW-620 colon = test system: SW-620 colon
UACC-257 melanoma = test system: UACC-257 melanoma
RPMI-8226 leukemia = test system: RPMI-8226 leukemia
HT29 colon = test system: HT29 colon
MOLT-4 leukemia = test system: MOLT-4 leukemia
IGROV1 ovarian = test system: IGROV1 ovarian
EKVX NSCLC = test system: EKVX NSCLC
MDA-MB-231 breast = test system: MDA-MB-231 breast
SNB-75 CNS = test system: SNB-75 CNS
TK-10 renal = test system: TK-10 renal
HCC-2998 colon = test system: HCC-2998 colon
HOP-62 NSCLC = test system: HOP-62 NSCLC
KM12 colon = test system: KM12 colon
RXF 393 renal = test system: RXF 393 renal
A498 renal = test system: A498 renal
NCI-H23 lung = test system: NCI-H23 lung
SK-MEL-28 melanoma = test system: SK-MEL-28 melanoma
HS 578T breast = test system: HS 578T breast
HCT-116 colon = test system: HCT-116 colon
MCF7 breast = test system: MCF7 breast
OVCAR-4 ovarian = test system: OVCAR-4 ovarian
NCI/ADR-RES ovarian = test system: NCI/ADR-RES ovarian
NCI-H460 lung = test system: NCI-H460 lung
A549 NSCLC = test system: A549 NSCLC
NCI-H226 lung = test system: NCI-H226 lung
SF-539 CNS = test system: SF-539 CNS
SR leukemia = test system: SR leukemia
OVCAR-8 ovarian = test system: OVCAR-8 ovarian
DU-145 prostate = test system: DU-145 prostate
HCT-15 colon = test system: HCT-15 colon
SK-MEL-5 melanoma = test system: SK-MEL-5 melanoma
CCRF-CEM leukemia = test system: CCRF-CEM leukemia
LOX IMVI melanoma = test system: LOX IMVI melanoma
NCI-H522 lung = test system: NCI-H522 lung
OVCAR-5 ovarian = test system: OVCAR-5 ovarian
SN12C renal = test system: SN12C renal
ACHN renal = test system: ACHN renal
COLO 205 colon = test system: COLO 205 colon
HOP-92 NSCLC = test system: HOP-92 NSCLC
M14 melanoma = test system: M14 melanoma
SNB-19 CNS = test system: SNB-19 CNS
UO-31 renal = test system: UO-31 renal
MALME-3M melanoma = test system: MALME-3M melanoma
BT-549 breast = test system: BT-549 breast
UACC-62 melanoma = test system: UACC-62 melanoma

Measured: TGI

O=C1OCC=C1COC1OC(CO)C(O)C(O)C1O (stereo not given)
39.3 µM: NCI-H522 lung
not listed: BT-549 breast | UACC-62 melanoma
> 100 µM: all other assays above

Clc1ccc(-c2cc(-c3cc(-c4ccc(Cl)cc4)n[nH]3)[nH]n2)cc1
> 100 µM: PC-3 prostate | BT-549 breast | SK-OV-3 ovarian | OVCAR-3 ovarian | SK-MEL-2 melanoma | T-47D breast | K-562 leukemia | MDA-N | MDA-MB-435 | UACC-257 melanoma | MOLT-4 leukemia | IGROV1 ovarian | EKVX NSCLC | RXF 393 renal | A498 renal | NCI-H23 lung | HCT-116 colon | NCI-H226 lung | DU-145 prostate | SK-MEL-5 melanoma | NCI-H522 lung | OVCAR-5 ovarian | ACHN renal | COLO 205 colon | M14 melanoma | UO-31 renal | MALME-3M melanoma

CCCC1C(CC)C(NC)C(C#N)(C#N)C1(C#N)C#N (stereo not given)
46.8 µM: NCI-H23 lung
34.3 µM: 786-0 renal | SF-268 CNS
24.5 µM: SK-MEL-5 melanoma
28.7 µM: HCT-15 colon
43.8 µM: RPMI-8226 leukemia
82.3 µM: SR leukemia
34.8 µM: SF-539 CNS
35.4 µM: NCI-H226 lung
26.6 µM: COLO 205 colon
29.2 µM: HOP-62 NSCLC
35.7 µM: SK-MEL-2 melanoma
59 µM: NCI/ADR-RES ovarian
31.9 µM: A498 renal
28 µM: RXF 393 renal
36.1 µM: MDA-N | LOX IMVI melanoma
27.2 µM: DU-145 prostate
27.6 µM: HT29 colon
76.9 µM: MOLT-4 leukemia
39.2 µM: UACC-62 melanoma
34.5 µM: SN12C renal
30 µM: UO-31 renal
39.9 µM: PC-3 prostate
34.6 µM: TK-10 renal
30.1 µM: MDA-MB-231 breast | HCT-116 colon
29 µM: T-47D breast
94.3 µM: SK-MEL-28 melanoma
48.5 µM: SNB-19 CNS
33.4 µM: IGROV1 ovarian
43.1 µM: ACHN renal
22.5 µM: SNB-75 CNS
25.9 µM: CAKI-1 renal
95.1 µM: U251 CNS
41.9 µM: SF-295 CNS
33.3 µM: UACC-257 melanoma | NCI-H522 lung
58.9 µM: OVCAR-8 ovarian
32.2 µM: HOP-92 NSCLC
63.8 µM: MALME-3M melanoma
32.9 µM: HCC-2998 colon
87.6 µM: EKVX NSCLC
91.8 µM: HL-60(TB) leukemia
30.9 µM: KM12 colon
not listed: OVCAR-3 ovarian | NCI-H460 lung | BT-549 breast
> 100 µM: all other assays above
